Assay type in all cases: cell-based
One assay has as its system GAPDH. Nature of the assay: Gene expression of reference gene GAPDH in human keratinocytes NHEK per RT-qPCR. Conditions: each compound at 10 μg/ml, 18 hours incubation. As for the experimental part: (§1) The effect of the lycopene and manganese was studied separately then in combination on the gene expression profile (RNAm) of human keratinocytes NHEK (normal human epidermal keratinocytes) per RT-qPCR.
(§2) A 24-well plate was seeded with keratinocytes then placed into culture for 24 hours. The culture medium was then replaced with the test medium comprising according to the cases 0 (negative control), one or two tested compounds. The cells were incubated in this test medium for 18 hours then washed and frozen at −80° C. Each condition was carried out in triplicate. Two samples of each triplicate were grouped together, then the RNAm was extracted therefrom using TriPure Isolation Reagent® according to the supplier's recommendations. The ADNc was synthesized via reverse transcription of total RNA by “Transcriptor Reverse Transcriptase” from Roche. Then a quantitative PCR was performed in the presence of a fluorophore. The incorporation of fluorophore in the amplified DNA was measured during the PCR cycles. Two genes were used as a reference (RPS28 ad GADPH), in order to standardize the results. As such the level of expression of the studied genes was compared to the average level of expression of these two reference genes for all of the conditions tested.
(§3) For this test, the source of lycopene is Lyc-o-Mato marketed by Lycored and the source manganese is manganese sulfate.
Background: Real-time PCR tracks product formation cycle by cycle.

For another assay, the system named is RPS28. The experiment in a line: Gene expression of reference gene RPS28 in human keratinocytes NHEK per RT-qPCR. The settings on record: each compound at 10 μg/ml, 18 hours incubation. As for the experimental part:
as §1, §2, §3

In the next assay the test system is SPRR2D. Nature of the assay: Gene expression (RNAm) of SPRR2D in human keratinocytes NHEK per RT-qPCR. The settings on record: each compound at 10 μg/ml, 18 hours incubation, standardized to RPS28 and GAPDH. As for the experimental part:
as §1, §2, §3

Here are results for one substance from US10744072B2, “Cosmetic composition for oral administration for reinforcing the skin barrier” (NUTRICOS Technologies, priority 2015, dated 2020).

On to manganese sulfate, for which, in the assay on GAPDH, the “Control (GAPDH) expression expressed as a percentage in relation to the conditions without added compound” value stood at 96%. Moreover, in the assay on RPS28, the “Control (RPS28) expression expressed as a percentage in relation to the conditions without added compound” value turned out to be 117%. Besides, the “SPRR2D expression expressed as a percentage in relation to the conditions without added compound” value in the assay on SPRR2D is 106%.
